Patent publication US20210260141A1, “MSC- AND EXOSOME-BASED IMMUNOTHERAPY” (EXOSTEM BIOTEC LTD., priority 2018, published 2021)

B1: miR-34: microRNA; pre-miR SEQ ID NO: 10, mature 5p SEQ ID NO: 11, 3p SEQ ID NO: 12 (nucleic acid, listed as Homo sapiens)
chain: UGGCAGUGUCUUAGCUGGUUGUUGUGAGCAAUAGUAAGGAAGCAAUCAGCAAGUAUACUGCCCUA
modifications: expressed or natural sequence

Tests used:
Type in all cases: cell-based
[1] = tested on: glioma stem cells (GSCs); assay: self-renewal of GSCs (secondary neurosphere formation) after coculture with MSCs or addition of their exosomes; details: trans-well coculture
[2] = tested on: 3′ UTR of PD-L1; assay: PD-L1 3′ UTR luciferase reporter in GSCs cocultured with MSCs or treated with their exosomes; details: pre-miR expressed in CH-, AD- and UC-MSCs, trans-well coculture with GSCs
[3] = tested on: PD-1 3′ UTR; assay: PD-1 3′ UTR luciferase reporter in HEK293 cells; details: miR transfected in CH-MSCs; same whether cocultured or exosomes added
Method: PD-L1 is only half of the immune surveillance axis, its receptor PD-1 is expressed on immune cells and is required for cancer cell immune inhibition. […] CH-MSCs were also transfected with miR-124, miR-34, miR-30b and a combination of all three and then PD-1 expression was assessed. […] The effect was the same whether cells were cocultured, or whether exosomes were added. miR-34 has already been reported to target PD-L1, thus this miR and miR-124 are both effective at targeting both sides of the PD-L1/PD-1 axis.

[4] = miR expressed in CH- and UC-MSCs

Row | Molecule | effect on self-renewal of GSCs ([1]; miR expressed in AD-MSCs) | effect on self-renewal of GSCs [1, 4] | luciferase expression (PD-L1 reporter) [2] | effect on PD-1 reduction (luciferase reporter) [3]
1 | miR-29c: microRNA; pre-miR SEQ ID NO: 4, mature 5p SEQ ID NO: 5, 3p SEQ ID NO: 6 (ACCGAUUUCUCCUGGUGUUCAGAGUCUGUUUUUGUCUAGCACCAUUUGAAAUCGGUUA; expressed or natural sequence; listed as Homo sapiens) | more pronounced effect | negligible effect | decreased luciferase expression | –
2 | miR-30b: microRNA; pre-miR SEQ ID NO: 13, mature 5p SEQ ID NO: 14, 3p SEQ ID NO: 15 (UGUAAACAUCCUACACUCAGCUGUAAUACAUGGAUUGGCUGGGAGGUGGAUGUUUACUUC; expressed or natural sequence; listed as Homo sapiens) | – | – | – | enhanced the PD-1 reduction
3 | miR-378: microRNA; pre-miR SEQ ID NO: 32, mature 5p SEQ ID NO: 33, 3p SEQ ID NO: 34 (CUCCUGACUCCAGGUCCUGUGUGUUACCUAGAAAUAGCACUGGACUUGGAGUCAGAAGGC; expressed or natural sequence; listed as Homo sapiens) | more pronounced effect | negligible effect | decreased luciferase expression | –
4 | B1 | – | – | – | enhanced the PD-1 reduction
